# Measured values from patent US20250277186A1, “COMPOUND MICROBIAL INOCULUM WITH BACTERIOSTATIC EFFECT AND USE THEREOF IN PREPARATION OF YOGURT” (priority 2023, published 2025).
# How the values were obtained:
# [1] = system: Lactiplantibacillus plantarum FMBL L23036 CNN; experiment: Antibiotic sensitivity, drug-sensitive paper; as to Antibiotic sensitivity of Lactiplantibacillus plantarum FMBL L23036 CNN: key: R: resistant; I: intermediately sensitive; S: sensitive; type: cell-based; details: for Antibiotic sensitivity of Lactiplantibacillus plantarum FMBL L23036 CNN: drug-sensitive paper (content per Table 3), MRS solid medium, anaerobic 37° C. 24 h; for Resistant / sensitive, Lactiplantibacillus plantarum FMBL L23036 CNN: text statement for the two strains
# Protocol: (§1) After two strains were cultured anaerobically at 37° C. at a 2% inoculation rate for 24 h, 100 μL (about 1×10^7 cfu/mL) of a bacteria solution of each strain was coated on the surface of an MRS solid medium, and then drug-sensitive paper (purchased from Oxoid Company, UK) was lightly pressed tightly in the middle of each of the mediums; and after anaerobic culture was carried out at 37° C. for 24 h, the bacteriostatic condition of the drug-sensitive paper was observed, and the diameter of the inhibition zone was measured.
# [2] = system: Lacticaseibacillus rhamnosus FMBL L23004 CNN; experiment: Antibiotic sensitivity, drug-sensitive paper; as to Antibiotic sensitivity of Lacticaseibacillus rhamnosus FMBL L23004 CNN: key: R: resistant; I: intermediately sensitive; S: sensitive; type: cell-based; details: for Antibiotic sensitivity of Lacticaseibacillus rhamnosus FMBL L23004 CNN: drug-sensitive paper (content per Table 3), MRS solid medium, anaerobic 37° C. 24 h; for Resistant / sensitive, Lacticaseibacillus rhamnosus FMBL L23004 CNN: text statement for the two strains
# Protocol: as §1
Compound,Antibiotic sensitivity of Lactiplantibacillus plantarum FMBL L23036 CNN [1],"Resistant / sensitive, Lactiplantibacillus plantarum FMBL L23036 CNN [1]",Antibiotic sensitivity of Lacticaseibacillus rhamnosus FMBL L23004 CNN [2],"Resistant / sensitive, Lacticaseibacillus rhamnosus FMBL L23004 CNN [2]"
NCC[C@H](O)C(=O)N[C@@H]1C[C@H](N)[C@@H](O[C@H]2O[C@H](CN)[C@@H](O)[C@H](O)[C@H]2O)[C@H](O)[C@H]1O[C@H]1O[C@H](CO)[C@@H](O)[C@H](N)[C@H]1O [Amikacin],R,resistant,R,resistant
CC1(C)S[C@@H]2[C@H](NC(=O)[C@H](N)c3ccc(O)cc3)C(=O)N2[C@H]1C(=O)O [Amoxicillin],S,sensitive,S,sensitive
CC1(C)S[C@@H]2[C@H](NC(=O)[C@H](N)c3ccccc3)C(=O)N2[C@H]1C(=O)O [Ampicillin],S,sensitive,S,sensitive
O=C(Cc1cccs1)N[C@@H]1C(=O)N2C(C(=O)[O-])=C(C[n+]3ccccc3)CS[C@H]12 [Cephaloridine],S,sensitive,S,sensitive
O=C(N[C@H](CO)[C@H](O)c1ccc([N+](=O)[O-])cc1)C(Cl)Cl [Chloramphenicol],S,sensitive,S,sensitive
O=C(O)c1cn(C2CC2)c2cc(N3CCNCC3)c(F)cc2c1=O [Ciprofloxacin],R,resistant,R,resistant
CCC[C@@H]1C[C@@H](C(=O)N[C@@H]([C@H]2O[C@H](SC)[C@H](O)[C@@H](O)[C@H]2O)[C@H](C)Cl)N(C)C1 [Clindamycin],S,,S,
CC[C@H]1OC(=O)[C@H](C)[C@@H](O[C@H]2C[C@@](C)(OC)[C@@H](O)[C@H](C)O2)[C@H](C)[C@@H](O[C@@H]2O[C@H](C)C[C@H](N(C)C)[C@H]2O)[C@](C)(O)C[C@@H](C)C(=O)[C@H](C)[C@@H](O)[C@]1(C)O [Erythromycin],I,,S,
NC[C@H]1O[C@H](O[C@H]2[C@H](O)[C@@H](O[C@H]3O[C@H](CO)[C@@H](O)[C@H](N)[C@H]3O)[C@H](N)C[C@@H]2N)[C@H](O)[C@@H](O)[C@@H]1O [Kanamycin],R,,R,
CN(C)c1ccc(O)c2c1C[C@H]1C[C@H]3[C@H](N(C)C)C(O)=C(C(N)=O)C(=O)[C@@]3(O)C(O)=C1C2=O [Minocycline],S,,S,
CCn1cc(C(=O)O)c(=O)c2cc(F)c(N3CCNCC3)cc21 [Norfloxacin],R,resistant,R,resistant
Cc1onc(-c2ccccc2)c1C(=O)N[C@@H]1C(=O)N2[C@@H]1SC(C)(C)[C@@H]2C(=O)O [Oxacillin],R,,I,
CO[C@H]1/C=C/O[C@@]2(C)Oc3c(C)c(O)c4c(O)c(c(/C=N/N5CCN(C)CC5)c(O)c4c3C2=O)NC(=O)/C(C)=C\C=C\[C@H](C)[C@H](O)[C@@H](C)[C@@H](O)[C@@H](C)[C@H](OC(C)=O)[C@@H]1C [Rifampicin],S,,S,
[H]/N=C(/N)N[C@H]1[C@H](O)[C@@H](O)[C@H](O[C@@H]2O[C@@H](C)[C@](O)(C=O)[C@H]2O[C@@H]2O[C@@H](CO)[C@H](O)[C@@H](O)[C@@H]2NC)[C@@H](N/C(N)=N\[H])[C@@H]1O [Streptomycin],R,,I,
CN(C)[C@@H]1C(O)=C(C(N)=O)C(=O)[C@@]2(O)C(O)=C3C(=O)c4c(O)cccc4[C@@](C)(O)[C@H]3C[C@@H]12 [Tetracycline],S,,S,
CN[C@H](CC(C)C)C(=O)N[C@H]1C(=O)N[C@@H](CC(N)=O)C(=O)N[C@H]2C(=O)N[C@H]3C(=O)N[C@H](C(=O)N[C@H](C(=O)O)c4cc(O)cc(O)c4-c4cc3ccc4O)[C@H](O)c3ccc(c(Cl)c3)Oc3cc2cc(c3O[C@@H]2O[C@H](CO)[C@@H](O)[C@H](O)[C@H]2O[C@H]2C[C@](C)(N)[C@H](O)[C@H](C)O2)Oc2ccc(cc2Cl)[C@H]1O [Vancomycin],R,resistant,R,resistant
Gentamicin,R,resistant,R,resistant
Penicillin,S,sensitive,S,sensitive
Polymyxin,R,resistant,R,resistant
Teicoplanin,R,resistant,R,resistant
